Data on seven molecules can be found in patent US4156016A, “Indole compounds and process for their preparation” (Hoffmann-La Roche Inc., priority 1977, dated 1979).

Each structure is given as a SMILES string.

The test system of one data set is platelet aggregation. Particulars: cited from earlier work.
The next data set has as its system thromboxanes. Particulars: submicrogram concentrations of PGE2; cited from earlier work.
Data set [1] can be described thus: Ulcerogenicity (general statement).
In data set [2] the test system is human blood-platelet aggregation. Nature of the data set: Inhibition of human blood-platelet aggregation (general statement).
The subject of a further data set is prostaglandin formation. As to the kind of experiment: Inhibition of prostaglandin formation (general statement).
Data set [3] can be described thus: Toxicity (general statement).
The test system of data set [4] is Collagen-Induced Platelet Aggregation. Nature of the data set: Inhibition of collagen-induced platelet aggregation in human platelet-rich plasma. The format is cell-based. On the procedure: (§1) Venous blood was collected from human volunteers in siliconized 20 ml. […] Platelet rich plasma (PRP) was separated from the red blood cells by centrifugation at 180×g for 15 minutes at room temperature. Platelet poor plasma (PPP) was prepared by centrifuging PRP at 1000×g for 2 minutes.
(§2) Techniques established by Born et al., J. Physiol. […] PRP (1 ml.) was added to a siliconized cuvette containing a siliconized stirring bar and placed in a densitometer maintained at 37° C. and stirred at 1000 RPM. Various concentrations of test compounds were added in 50 μl of saline and incubated with PRP for 5 minutes. Aggregation was initiated by the addition of sufficient concentrations of ADP (Sigma Chemical Co.), epinephrine HCl (Parke, Davis & Co., Detroit, Michigan), or human mammary gland collagen (obtained from Roosevelt Hospital, N.Y.) to give about 60% of maximum aggregation response. The light transmission through PPP was used to determine maximum response. The percent inhibition of aggregation caused by the drug was calculated from the strip chart recordings at the point of maximum collagen response.

Data set [5] relates to arachidonic acid induced diarrhea. Nature of the data set: Arachidonic acid diarrhea prevention (mice). Format: in vivo, Carworth Farm CF-1 male mice. On the procedure: Carworth Farm CF-1 male mice weighing 18-20 grams were administered the test compound by either the oral or intraperitoneal route one hour prior to the intraperitoneal administration of 4 mg/kg of arachidonic acid (Hoffmann-La Roche Inc.). […] The diarrhea was graded on paper towels as follows: 0=solid pellet or no bowel movement; 1=slightly soft pellet with little or no wet ring formation; 2=moderately soft pellet with definite wet ring formation; 3=soft pellet with large wet ring formation; and 4=amorphous pellet with very large wet ring formation.
The calculation of the ED50 was made according to the method of Miller et al., Proc. Soc.

The next data set has as its system serum PGF2α. Nature of the data set: Inhibition of prostaglandin formation: serum PGF2α by radioimmunoassay (rats). The format is in vivo, male rats. Particulars: rats; for ED50: Rattus norvegicus, 1 h; for serum PGF2α ED50: 60 min.
A short description of the next data set: Acute toxicity in mice. The conditions noted are these: mouse, in vivo. On the procedure: CF-IS mice of both sexes weighing 17-25 grams were used. The compounds were ground in a mortar and suspended in 5% gum acacia for oral or intraperitoneal administration. Eight to ten mice were used per dose level. […] The LD50 was calculated by the method of Miller et al., Proc. Soc. Exp. Biol. Med., 57, pages 261-264 (1944).

The test system of data set [6] is Collagen-Induced Platelet Aggregation. As to the kind of experiment: Effect of compounds in whole blood: collagen-induced platelet aggregation after incubation in whole blood. Format: cell-based, human. Particulars: incubation in whole blood. How it is done:
Aliquots of citrated human blood (10 ml.) were exposed to different concentrations of the "nitrile" by mechanically shaking at room temperature for 5 minutes.

Data set [7] can be described thus: Gastric ulcer induction (rats). Also on record: species or system male Wistar rats. The conditions noted are these: rat, in vivo, po, rats; read-out: Ulcer incidence ED50. How it is done:
The test is a modification of that described by Brodie et al., Gastroenterology, 53, pages 604-610 (1967). Male Wistar rats (Royal Hart Laboratories) were deprived of food for 18 hours prior to testing. Tap water was permitted ad libitum. Test compounds were administered orally four hours to autopsy. The rats were sacrificed under ethyl ether anesthesia, opened along the ventral midline and the stomachs removed. The stomach was divided along the lesser curvature, everted, rinsed in saline, and examined for the presence of focal hemorrhage. Ulcers were rated on an all or none basis for incidence and, in addition, each stomach is graded for severity of ulcers formed. Ulcer scores: 0=none, 1=trace, 2=mild, 3=moderate, and 4=severe. The results of the ulcer scores obtained were subjected to statistical analysis by the student `t` test.

The test system of another data set is ADP induced aggregation. Nature of the data set: Inhibition of ADP-induced platelet aggregation (second wave) in human platelet-rich plasma. Format: cell-based. The conditions noted are these: incubation in human citrated platelet-rich plasma. How it is done: as §1, §2
Data set [8] has as its system platelet prostaglandin formation. Particulars: cited from earlier work.
Data set [9] has as its system Epinephrine induced aggregation. Nature of the data set: Inhibition of epinephrine-induced platelet aggregation (second wave) in human platelet-rich plasma. The format is cell-based. Particulars: incubation in human citrated platelet-rich plasma. On the procedure: as §1, §2
The subject of data set [10] is biosynthesis of thromboxanes. Particulars: cited from earlier work.
Setting [11] is: incubation in human citrated platelet-rich plasma, read-out: IC50 collagen.

As to `CCCCCC[C@H](O)/C=C/[C@H]1[C@H](O)CC(=O)[C@@H]1CCCCCCC(=O)O` [ω-homo PGE1, (11α,13E,15S)-11,15-dihydroxy-20-methyl-9-oxoprost-13-en-1-oic acid], the “inhibition of platelet aggregation (in words)” value in the data set on platelet aggregation is listed as “demonstrated to inhibit platelet aggregation”.

Turning to `CCCCC[C@H](O)/C=C/[C@H]1[C@H](O)CC(=O)[C@@H]1C/C=C\CCCC(=O)O` [PGE2], the “potentiation of biological effects of thromboxanes” value in the data set on thromboxanes is not above 700%.

As to `NC(=O)c1[nH]c2ccc(C(O)(C(F)(F)F)C(F)(F)F)cc2c1-c1ccccc1` [amide, 3-Phenyl-5-[2,2,2-trifluoro-1-hydroxy-1-(trifluoromethyl)ethyl]indole-2-carboxamide], the “ulcerogenicity (in words)” value in data set [1] is on record as “non-ulcerogenic”. Besides, in data set [2], the “inhibition of human blood-platelet aggregation (in words)” value was “inhibit prostaglandin formation and human blood-platelet aggregation”. In the data set on prostaglandin formation, the “inhibition of prostaglandin formation (in words)” value is “inhibit prostaglandin formation”. Further, the “toxicity (in words)” value in data set [3] is on record as “low in toxicity”. For the same molecule, in [4] (Homo sapiens, Platelet, Table 7, read-out: Inhibition of collagen-induced platelet aggregation, Activity IC50), the IC50 (commonly the point on the concentration scale where inhibition reaches its midpoint) is 3000 nM.

On to `CCCCC[C@H](O)/C=C/[C@H]1[C@H](O)CC(=O)[C@@H]1CCCCCCC(=O)O` [PGE1, (11,13E,15S)-11,15-dihydroxy-9-oxoprost-13-en-1-oic acid], for which, in the data set on platelet aggregation, the “inhibition of platelet aggregation (in words)” value was “demonstrated to inhibit platelet aggregation”.

Take `COc1ccc2c(c1)c(CC(=O)O)c(C)n2C(=O)c1ccc(Cl)cc1` [Indomethacin, reference compound]: the ED50 – broadly, the dose at which the effect has come halfway, by size or by number of responders – in data set [5] (Mus musculus, po) is 0.8 mg/kg; in the data set on serum PGF2α (ip) it was less than 1 mg/kg; in the data set on serum PGF2α (po), 1 mg/kg. Also, the LD50 (commonly the dose expected to kill half of the subjects tested) at 120 h was determined as 193 mg/kg in the data set “Acute toxicity in mice” (ip) and 430 mg/kg in the data set “Acute toxicity in mice” (po). Further, the IC50 in data set [6] (Homo sapiens, Platelet) is 400 nM; in [4] (setting [11]) it was 1000 nM; in the data set with ADP induced aggregation, 100 nM; in data set [9] it was 2000 nM. The TD50 at 4 h in data set [7] was determined as 3 mg/kg. Further, the “inhibition of platelet prostaglandin formation (in words)” value in data set [8] is “known inhibitors of platelet prostaglandin formation”.

For the molecule `CCCCC[C@H](O)/C=C/[C@H]1[C@H](O)CC(=O)[C@H]1CCCCCCC(=O)O` [Example 8-iso-PGE1, (8β,11α,13E,15S)-11,15-dihydroxy-9-oxoprost-13-en-1-oic acid], the “inhibition of platelet aggregation (in words)” value with platelet aggregation was “demonstrated to inhibit platelet aggregation”.

As to `CC(=O)Oc1ccccc1C(=O)O` [Aspirin, reference compound], the “arachidonic acid induced diarrhea ED50” value in data set [5] (p.o.) amounted to 1.3 mg/kg. Further, the “serum PGF2α ED50” value in the data set on serum PGF2α (i.p.) and with serum PGF2α (p.o.) was 10 mg/kg throughout. Further, the “inhibition of the biosynthesis of thromboxanes (in words)” value in data set [10] is “inhibits the biosynthesis of thromboxanes”. This molecule came in with a 50% lethal dose (LD50) at 120 h in the data set “Acute toxicity in mice” (po) of more than 1000 mg/kg. For the same molecule, the IC50 was 1500 nM in data set [6], 30000 nM in [4] (setting [11]), 30000 nM in the data set on ADP induced aggregation and 17000 nM in data set [9]. In data set [7], the TD50 at 4 h came to 49 mg/kg. Further, in data set [8], the “inhibition of platelet prostaglandin formation (in words)” value is “known inhibitors of platelet prostaglandin formation”.
